According to patent US20250243203A1, “NICOTINAMIDE- AND BENZAMIDE-BASED COMPOUNDS, CONJUGATES, AND COMPOSITIONS AS INHIBITORS OF TRANSLATIONAL- AND TRANSCRIPTIONAL-RELATED KINASES” (PURDUE RESEARCH FOUNDATION, priority 2022, published 2025):
Like-named read-outs stand apart in the source and are kept apart here.

Experiments:
[1] = tested on: multiple myeloma cell lines; assay: Inhibition of multiple myeloma cell lines; format: cell-based, human; conditions: FIG. 4
MNK2 = MNK2 (Homo sapiens, UniProt Q9HBH9); assay: MNK2 inhibition, in vitro studies at Reaction Biology Corporation; format: biochemical; conditions: 50 nM compound, 10 uM ATP
p70S6K = p70S6K (Homo sapiens, UniProt P23443); assay: p70S6K inhibition, in vitro studies at Reaction Biology Corporation; format: biochemical; conditions: 25 nM compound, [ATP]=10 uM
Description: The nature of the substituent on the imidazo[1,2-b]pyridazine moiety at position-6 was evaluated in in vitro studies performed at Reaction Biology Corporation (Malvern, PA). The results indicated the specific substituent dramatically affected the inhibition of p70S6K.

CT-26 C2 tumor cells = assay: CT-26 in vivo tumor reduction; parameters: species or system BALB/c female mouse; conditions: CT-26, day 17 from start of dosing, oral QD
Description: Each BALB/c female mouse was inoculated subcutaneously at the right flank with CT-26 C2 tumor cells (0.3×10^6/mouse) in 0.1 mL PBS for tumor development. Treatments for the efficacy study were started on day 10 after tumor inoculation when the average tumor size reached approximately 71 mm^3. Each group consisted of 6 tumor-bearing mice. Vehicle control was 25 mM citrate buffer (pH 2.5). HSND80 was dosed orally QD at 15 mg/Kg for 4 days and 10 mg/Kg afterwards. HSND100 was dosed at 15 mg/Kg. Mice were dosed 5 days on and 2 days off (drug holiday). Tumors were measured every other day (L, W, H) to give tumor volume in mm^3.

[2] = tested on: MDA-MB-231 (breast cancer); assay: Growth inhibition of MDA-MB-231 (NCI-60 human tumor cell line screen); format: cell-based
[3] = biological target: T1, MER Proto-Oncogene tyrosine kinase (MERTK) (Homo sapiens, UniProt Q12866); assay: KINOMEscan competition binding assay (Eurofins DiscoverX), MERTK
T1 construct: purchased Eurofins DiscoverX (KINOMEscan service)
T1 sequence (Q12866 21-999): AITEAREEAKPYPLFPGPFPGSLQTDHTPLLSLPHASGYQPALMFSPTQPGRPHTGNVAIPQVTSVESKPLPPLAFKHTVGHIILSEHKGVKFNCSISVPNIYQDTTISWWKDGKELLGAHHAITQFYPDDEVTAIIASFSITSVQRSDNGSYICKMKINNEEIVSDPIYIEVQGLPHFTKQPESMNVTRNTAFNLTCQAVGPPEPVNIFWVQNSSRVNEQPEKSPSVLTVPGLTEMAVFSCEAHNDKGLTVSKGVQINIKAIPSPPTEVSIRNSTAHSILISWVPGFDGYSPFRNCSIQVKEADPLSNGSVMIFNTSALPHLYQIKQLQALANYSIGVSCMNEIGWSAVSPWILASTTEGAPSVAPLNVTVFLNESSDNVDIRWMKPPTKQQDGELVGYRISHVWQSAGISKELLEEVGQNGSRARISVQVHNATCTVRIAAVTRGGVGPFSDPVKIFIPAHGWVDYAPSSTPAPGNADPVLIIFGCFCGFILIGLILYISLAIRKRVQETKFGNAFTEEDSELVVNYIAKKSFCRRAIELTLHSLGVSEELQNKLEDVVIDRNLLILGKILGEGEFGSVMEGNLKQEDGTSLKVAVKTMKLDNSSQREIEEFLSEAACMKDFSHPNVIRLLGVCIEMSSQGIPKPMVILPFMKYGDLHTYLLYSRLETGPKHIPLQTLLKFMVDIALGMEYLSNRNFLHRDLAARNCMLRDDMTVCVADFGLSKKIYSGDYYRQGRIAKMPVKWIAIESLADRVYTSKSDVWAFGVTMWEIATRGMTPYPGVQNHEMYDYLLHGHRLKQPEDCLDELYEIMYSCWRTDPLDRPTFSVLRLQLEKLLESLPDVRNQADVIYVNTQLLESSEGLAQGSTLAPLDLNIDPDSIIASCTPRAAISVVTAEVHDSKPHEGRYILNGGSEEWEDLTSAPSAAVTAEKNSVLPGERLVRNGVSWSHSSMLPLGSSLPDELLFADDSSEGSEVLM
Description: The affinity of several compounds hereof having a substituent on the imidazo[1,2-b]pyridazine moiety at position-6, wherein the substituent comprised one or more ring moieties was evaluated with respect to two TAM kinases: AXL and MERTK. Perhaps more specifically, the equilibrium dissociation constant between each of compounds HSND141, compound HSND149, HSND150, HSND151, and HSND80 and AXL and MERTK was evaluated at Eurofins DiscoverX using KINOMEscan™, which is a competition binding assay that quantitively measured the ability of each tested compound to displace an immobilized, active-site directed ligand. The assay uses DNA-tagged kinase, an immobilized ligand, and the test compound. Quantitative polymerase chain reaction (PCR) of the DNT tag was then used to measure the ability of the tested compound to displace the immobilized ligand.

[4] = tested on: 4T1 (breast) syngeneic tumor; assay: 4T1 in vivo tumor reduction; parameters: species or system Female Balb-C mice; conditions: 15 mg/kg orally QD, 5 days on 2 days off
Description: 0.5×10^6 4T1 cells were injected subcutaneously (SQ) into the right flank of Female Balb-C mice. Each group consisted of 5 tumor-bearing mice. 7 days after tumor implantation, mice were dosed orally QD with vehicle control (5% DMSO, 40% PEG300, 5% tween 80, 50% water) or HSND80 (15 mg/Kg). Mice were dosed 5 days on and 2 days off (drug holiday). Tumors were measured every other day (L, W, H) to give tumor volume in mm^3.

Caki-1 (renal cancer) = assay: Growth inhibition of Caki-1 (NCI-60 human tumor cell line screen); format: cell-based; conditions: 200 nM
[5] = Oral bioavailability study in mice; format: in vivo, Male CD1 Mice; conditions: 10 mg/Kg, FIG. 5
Description: The bioavailability and Cmax of the ring-6-substituted imidazo[1,2-b]pyridazine compounds were also assessed.
Briefly, compounds were dissolved in 10% dimethylsulfoxide (DMSO)/90% (20% HP-β-CD in water (w/w)). Male CD1 Mice (n=3) were dosed orally with 10 mg/Kg of each compound (HSND80, HSND41, HSND101, HSND102, HSND141, and HSND156). Blood was sampled at 0.25 hours, 0.5 hour, 1 hour, 2 hours, 4 hours, 8 hours, and 24 hours post dose, and the concentration of compound in blood at each specific time point was determined via liquid chromatography-mass spectrometry (LC-MS) (high-performance liquid chromatography (HPLC) instrument: Shimadzu; MS instrument: AB API 5500 LC/MS/MS; Column: HALO C18 90 A 2.7 μm (30*2.1 mm); Mobile phase A: 5% Acetonitrile in Water (0.1% Formic acid); Mobile phase B: 95% Acetonitrile in Water (0.1% Formic acid)).

Chain of MNK2 (Q9HBH9 whole entry): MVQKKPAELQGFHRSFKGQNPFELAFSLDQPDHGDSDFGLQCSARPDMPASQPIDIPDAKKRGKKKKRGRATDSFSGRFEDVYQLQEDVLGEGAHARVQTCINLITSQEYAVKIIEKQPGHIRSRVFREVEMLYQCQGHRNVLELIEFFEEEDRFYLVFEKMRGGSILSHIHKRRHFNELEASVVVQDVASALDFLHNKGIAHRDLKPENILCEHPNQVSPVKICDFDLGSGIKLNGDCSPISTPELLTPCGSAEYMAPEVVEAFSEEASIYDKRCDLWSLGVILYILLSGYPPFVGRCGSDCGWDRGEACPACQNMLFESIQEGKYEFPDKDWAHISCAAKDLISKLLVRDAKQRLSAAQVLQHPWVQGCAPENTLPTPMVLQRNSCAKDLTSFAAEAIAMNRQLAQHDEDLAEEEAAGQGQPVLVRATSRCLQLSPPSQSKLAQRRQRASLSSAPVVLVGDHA
Chain of p70S6K (P23443 whole entry): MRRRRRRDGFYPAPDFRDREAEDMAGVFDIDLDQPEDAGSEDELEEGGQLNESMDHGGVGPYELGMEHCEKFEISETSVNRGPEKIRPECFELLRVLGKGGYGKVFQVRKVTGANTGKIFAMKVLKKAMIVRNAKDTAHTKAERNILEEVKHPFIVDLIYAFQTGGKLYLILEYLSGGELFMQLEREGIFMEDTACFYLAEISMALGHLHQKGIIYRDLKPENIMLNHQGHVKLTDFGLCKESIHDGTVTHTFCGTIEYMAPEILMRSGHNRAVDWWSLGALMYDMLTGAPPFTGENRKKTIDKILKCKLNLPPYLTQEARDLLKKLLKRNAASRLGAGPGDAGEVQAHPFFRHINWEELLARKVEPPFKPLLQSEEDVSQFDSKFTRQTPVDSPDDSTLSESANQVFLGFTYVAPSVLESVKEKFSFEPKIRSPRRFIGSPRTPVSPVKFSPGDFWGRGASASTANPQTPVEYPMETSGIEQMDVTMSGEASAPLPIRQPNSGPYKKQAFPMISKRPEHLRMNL

inhibition at 0.05 µM (MNK2): 96%
inhibition of p70S6K (p70S6K): 97%
Kd ([3]; FIG. 7A, replicate 1, read-out: Kd MERTK, replicate 1): 1.6 nM
Kd ([3]; FIG. 7B, replicate 2, read-out: Kd MERTK, replicate 2): 2.1 nM
Kd ([3]; Table 1, DiscoverX Eurofins, read-out: Kd MERTK): < 0.17 nM
Compound: C[C@@H]1CN(c2ccc3ncc(C#Cc4cncc(C(=O)Nc5ccc(CN6CCN(C)CC6)c(C(F)(F)F)c5)c4)n3n2)C[C@H](C)O1 [HSND80, 5-((6-((2S,6R)-2,6-Dimethylmorpholino)imidazo[1,2-b]pyridazin-3-yl)ethynyl)-N-(4-((4-methylpiperazin-1-yl)methyl)-3-(trifluoromethyl)phenyl)nicotinamide]
inhibition of multiple myeloma cell lines [1]: potently inhibited
tumor reduction compared to vehicle control (CT-26 C2 tumor cells): 45%
inhibition at 0.2 µM ([2]; 200 nM): 100%
IC50 ([2]; 72 hours): 8.6 nM
reduction of growth of 4T1 tumor [4]: ~60%
inhibition at 0.2 µM (Caki-1 (renal cancer)): 100%
bioavailability [5]: more bioavailablity than unsubstituted morpholine (compound HSND41)
